# Results reported in patent US4904590A, “Antibiotic A80915 and process for its production” (Eli Lilly and Company, priority 1988, dated 1990).
# Assays:
# [1] = system: Fusobacterium necrophorum 6054A; assay: Susceptibility of anaerobic bacterial isolates (MIC), agar-dilution; type: cell-based; conditions: Fusobacterium necrophorum 6054A; agar-dilution, 24-hour incubation; read-out: MIC
# [2] = system: Eubacterium aerofaciens 1235; assay: as above; type: cell-based; conditions: Collinsella aerofaciens; Eubacterium aerofaciens 1235; agar-dilution, 24-hour incubation; read-out: MIC
# [3] = system: Peptostreptococcus intermedius 1264; assay: as above; type: cell-based; conditions: Peptostreptococcus intermedius 1264; agar-dilution, 24-hour incubation; read-out: MIC
# [4] = system: Clostridium difficile 2994; assay: as above; type: cell-based; conditions: Clostridioides difficile; Clostridium difficile 2994; agar-dilution, 24-hour incubation; read-out: MIC
# [5] = system: Bacteriodes thetaiotaomicron 1438; assay: as above; type: cell-based; conditions: Bacteriodes thetaiotaomicron 1438; agar-dilution, 24-hour incubation; read-out: MIC
# [6] = Spontaneous loss of nitrogen on standing in solvent; type: physicochemical; conditions: standing at room temperature in a solvent such as methanol, ethanol or water
# Text: Loss of nitrogen is accelerated by, for example, heating or the addition of salts or mild reducing agents such as sodium hyposulfite, and the like.
# [7] = system: Bacteriodes melaninogenicus 1856/28; assay: Susceptibility of anaerobic bacterial isolates (MIC), agar-dilution; type: cell-based; conditions: Bacteriodes melaninogenicus 1856/28; agar-dilution, 24-hour incubation; read-out: MIC
# [8] = Acute toxicity in mice, intraperitoneal injection; conditions: mouse, in vivo, ip
# Text: The acute toxicity of the A80915 antibiotics in mice, when administered by intraperitoneal injection and expressed as LD50, is shown in Table V.
# Trichomonas foetus = assay: Anti-protozoan activity (MIC); type: cell-based; conditions: Tritrichomonas foetus
# [9] = system: Clostridium perfringens 81; assay: microbe, parasite or virus in culture; type: cell-based; conditions: Clostridium perfringens, 81, 24 h
# [10] = system: Bacteriodes vulgatis 1211; assay: Susceptibility of anaerobic bacterial isolates (MIC), agar-dilution; type: cell-based; conditions: Bacteriodes vulgatis 1211; agar-dilution, 24-hour incubation; read-out: MIC
# [11] = system: Propionibacterium acnes 79; assay: as above; type: cell-based; conditions: Cutibacterium acnes; Propionibacterium acnes 79; agar-dilution, 24-hour incubation; read-out: MIC
# [12] = system: Peptococcus asaccharolyticus 1302; assay: as above; type: cell-based; conditions: Peptoniphilus asaccharolyticus, 1302, 24 h
# Peptococcus prevoti 1281 = assay: as above; type: cell-based; conditions: Peptococcus prevoti 1281; agar-dilution, 24-hour incubation; read-out: MIC
# [13] = system: Fusobacterium symbiosum 1470; assay: as above; type: cell-based; conditions: Fusobacterium symbiosum 1470; agar-dilution, 24-hour incubation; read-out: MIC
# [14] = system: Bacteriodes fragilis 1936B; assay: as above; type: cell-based; conditions: Bacteriodes fragilis 1936B; agar-dilution, 24-hour incubation; read-out: MIC
# Bacteriodes fragilis 111 = assay: as above; type: cell-based; conditions: Bacteriodes fragilis 111; agar-dilution, 24-hour incubation; read-out: MIC
# [15] = system: Peptostreptococcus anaerobius 1428; assay: as above; type: cell-based; conditions: Peptostreptococcus anaerobius 1428; agar-dilution, 24-hour incubation; read-out: MIC
# [16] = system: Streptococcus pyogenes C203; type: cell-based; conditions: Streptococcus pyogenes C203; agar-dilution; read-out: MIC
# Method: (§1) The A80915 antibiotics inhibit the growth of bacteria which are pathogenic to animal life. […] The MIC's in Table III were determined by conventional agar-dilution assays.
# Streptococcus sp. = type: cell-based; conditions: Veterinary organism Streptococcus sp.; agar-dilution
# Method: as §1
# Gram-negative = type: cell-based; conditions: agar-dilution
# Method: as §1
# Pasteurella hemolytica = type: cell-based; conditions: Veterinary organism Pasteurella hemolytica; agar-dilution
# Method: as §1
# [17] = system: Streptococcus pneumoniae Park1; type: cell-based; conditions: Streptococcus pneumoniae Park1; agar-dilution; read-out: MIC
# Method: as §1
# [18] = system: Staphylococcus aureus V41; type: cell-based; conditions: Staphylococcus aureus V41; agar-dilution; read-out: MIC
# Method: as §1
# [19] = system: Staphylococcus epidermis 222; type: cell-based; conditions: Staphylococcus epidermis 222; agar-dilution; read-out: MIC
# Method: as §1
# Mycoplasma gallisepticum = type: cell-based; conditions: Mycoplasmoides gallisepticum; Veterinary organism Mycoplasma gallisepticum; agar-dilution
# Method: as §1
# [20] = system: Staphylococcus aureus X400; type: cell-based; conditions: Staphylococcus aureus X400; agar-dilution; read-out: MIC
# Method: as §1
# Pasteurella multocida = type: cell-based; conditions: Veterinary organism Pasteurella multocida; agar-dilution
# Method: as §1
# Staphylococcus sp. = type: cell-based; conditions: Veterinary organism Staphylococcus sp.; agar-dilution
# Method: as §1
# [21] = system: Staphylococcus epidermis EPI1; type: cell-based; conditions: Staphylococcus epidermis EPI1; agar-dilution; read-out: MIC
# Method: as §1
# Escherichia coli = type: cell-based; conditions: Veterinary organism Escherichia coli; agar-dilution
# Method: as §1
# [22] = system: Bordetella bronchiseptica; type: cell-based; conditions: Veterinary organism Bordetella bronchiseptica; agar-dilution
# Method: as §1
# [23] = system: Staphylococcus aureus X1.1; type: cell-based; conditions: Staphylococcus aureus X1.1; agar-dilution; read-out: MIC
# Method: as §1
# Mycoplasma hyopneumoniae = type: cell-based; conditions: Mesomycoplasma hyopneumoniae; Veterinary organism Mycoplasma hyopneumoniae; agar-dilution
# Method: as §1
# [24] = system: Streptococcus faecium X66; type: cell-based; conditions: Enterococcus faecium; Streptococcus faecium X66; agar-dilution; read-out: MIC
# Method: as §1
# [25] = system: Streptococcus faecium 2041; type: cell-based; conditions: Enterococcus faecium; Streptococcus faecium 2041; agar-dilution; read-out: MIC
# Method: as §1
# Salmonella typhimurium = type: cell-based; conditions: Salmonella enterica; Veterinary organism Salmonella typhimurium; agar-dilution
# Method: as §1
# [26] = system: Bacteriodes corrodens 1874; assay: Susceptibility of anaerobic bacterial isolates (MIC), agar-dilution; type: cell-based; conditions: Bacteriodes corrodens 1874; agar-dilution, 24-hour incubation; read-out: MIC
# [27] = system: Clostridium septicum 1128; assay: as above; type: cell-based; conditions: 24-hour incubation
# Method: The A80915 antibiotics also are active against anaerobic bacteria. […] End points were read after 24-hour incubation.
# [28] = system: Bacteriodes melaninogenicus 2736; assay: as above; type: cell-based; conditions: Bacteriodes melaninogenicus 2736; agar-dilution, 24-hour incubation; read-out: MIC
# Trichomonas vaginalis = assay: Anti-protozoan activity (MIC); type: cell-based
# [29] = system: Bacteriodes fragilis 1877; assay: Susceptibility of anaerobic bacterial isolates (MIC), agar-dilution; type: cell-based; conditions: Bacteriodes fragilis 1877; agar-dilution, 24-hour incubation; read-out: MIC
# Candida albicans = assay: Anti-fungal activity (MIC); type: cell-based
smiles,measurement,setting,value
Cc1c([O-])c([N+]#N)c2c(c1O)C(=O)[C@@]1(Cl)C[C@@H](Cl)C(C)(C)O[C@@]1(C[C@H]1C(C)(C)[C@@H](Cl)CC[C@]1(C)O)C2=O [A80915D],MIC,[1],8 µg/mL
same,MIC,[2],16 µg/mL
same,MIC,[3],128 µg/mL
same,MIC,[4],16 µg/mL
same,MIC,[5],> 128 µg/mL
same,loss of nitrogen (stability),[6],spontaneously lose nitrogen
same,MIC,[7],32 µg/mL
same,LD50,[8],11.8 mg/kg
same,MIC,Trichomonas foetus,25 µg/mL
same,MIC,[9],16 µg/mL
same,MIC,[10],> 128 µg/mL
same,MIC,[11],16 µg/mL
same,MIC,[12],4 µg/mL
same,MIC,Peptococcus prevoti 1281,8 µg/mL
same,MIC,[13],> 128 µg/mL
same,MIC,[14],8 µg/mL
same,MIC,Bacteriodes fragilis 111,16 µg/mL
same,MIC,[15],8 µg/mL
same,MIC,[16],2 µg/mL
same,MIC,Streptococcus sp.,3.12 µg/mL
same,MIC,Gram-negative,> 128 µg/mL
same,MIC,Pasteurella hemolytica,12.5 µg/mL
same,MIC,[17],1 µg/mL
same,MIC,[18],2 µg/mL
same,MIC,[19],1 µg/mL
same,MIC,Mycoplasma gallisepticum,> 50 µg/mL
same,MIC,[20],2 µg/mL
same,MIC,Pasteurella multocida,3.12 µg/mL
same,MIC,Staphylococcus sp.,0.2 µg/mL
same,MIC,[21],2 µg/mL
same,MIC,Escherichia coli,> 50 µg/mL
same,MIC,[22],> 50 µg/mL
same,MIC,[23],1 µg/mL
same,MIC,Mycoplasma hyopneumoniae,25 µg/mL
same,MIC,[24],32 µg/mL
same,MIC,[25],32 µg/mL
same,MIC,Salmonella typhimurium,> 50 µg/mL
same,MIC,[26],> 128 µg/mL
same,MIC,[27],16 µg/mL
same,MIC,[28],> 128 µg/mL
same,MIC,Trichomonas vaginalis,25 µg/mL
same,MIC,[29],16 µg/mL
same,MIC,Candida albicans,10 µg/mL
